Measured values published in patent US20180170941A1 (priority 2016, published 2018).

What was measured:
MAM-treated rats = details: cited from earlier work
aged-impaired (AI) rats [1] = assay: Radial Arm Maze (RAM) behavioral task, spatial memory retention; type: in vivo, rat
Procedure: The effects of methyl 3,5-diphenylpyridazine-4-carboxylate on the in vivo spatial memory retention of aged-impaired (AI) rats were assessed in a Radial Arm Maze (RAM) behavioral task using vehicle control and four different dosage levels of methyl 3,5-diphenylpyridazine-4-carboxylate (0.1 mg/kg, 0.3 mg/kg, 1 mg/kg and 3 mg/kg, ip). RAM behavioral tasks were performed on eight AI rats. All five treatment conditions (vehicle and four dosage levels) were tested on all eight rats.
The RAM apparatus used consisted of eight equidistantly-spaced arms. An elevated maze arm (7 cm width×75 cm length) projected from each facet of an octagonal center platform (30 cm diameter, 51.5 cm height). Clear side walls on the arms were 10 cm high and were angled at 65° to form a trough. A food well (4 cm diameter, 2 cm deep) was located at the distal end of each arm. Froot Loops™ (Kellogg Company) were used as rewards. Blocks constructed of Plexiglas™ (30 cm height×12 cm width) could be positioned to prevent entry to any arm. Numerous extra maze cues surrounding the apparatus were also provided.
The AI rats were initially subjected to a pre-training test (Chappell et al. Neuropharmacology 37: 481-487, 1998). […]

GABAA α5 receptor = molecular target: T1, GABAA α5 receptor (Rattus norvegicus, UniProt P18508+P19969); assay: GABAA α5 receptor occupancy with Ro 15-4513 tracer, hippocampus vs cerebellum; type: in vivo, Long Evans rats; details: for Ro 15-4513 binding in hippocampus / cerebellum levels (binding) of Ro 15-4513: 0.01-10 mg/kg
T1 construct: from tissue
T1 sequence (P19969 32-464 limits assumed): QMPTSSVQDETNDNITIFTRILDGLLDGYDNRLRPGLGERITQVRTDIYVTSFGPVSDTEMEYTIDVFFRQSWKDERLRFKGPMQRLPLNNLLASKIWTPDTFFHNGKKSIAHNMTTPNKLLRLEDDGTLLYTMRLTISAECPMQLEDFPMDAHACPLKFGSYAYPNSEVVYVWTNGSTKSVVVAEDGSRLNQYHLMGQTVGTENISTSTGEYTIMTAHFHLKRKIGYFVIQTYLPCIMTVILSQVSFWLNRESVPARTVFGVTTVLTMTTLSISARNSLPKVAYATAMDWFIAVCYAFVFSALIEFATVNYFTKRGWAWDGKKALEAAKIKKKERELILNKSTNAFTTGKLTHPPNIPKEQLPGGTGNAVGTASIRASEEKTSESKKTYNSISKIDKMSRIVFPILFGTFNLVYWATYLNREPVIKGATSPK
T1 sequence (P18508 39-466): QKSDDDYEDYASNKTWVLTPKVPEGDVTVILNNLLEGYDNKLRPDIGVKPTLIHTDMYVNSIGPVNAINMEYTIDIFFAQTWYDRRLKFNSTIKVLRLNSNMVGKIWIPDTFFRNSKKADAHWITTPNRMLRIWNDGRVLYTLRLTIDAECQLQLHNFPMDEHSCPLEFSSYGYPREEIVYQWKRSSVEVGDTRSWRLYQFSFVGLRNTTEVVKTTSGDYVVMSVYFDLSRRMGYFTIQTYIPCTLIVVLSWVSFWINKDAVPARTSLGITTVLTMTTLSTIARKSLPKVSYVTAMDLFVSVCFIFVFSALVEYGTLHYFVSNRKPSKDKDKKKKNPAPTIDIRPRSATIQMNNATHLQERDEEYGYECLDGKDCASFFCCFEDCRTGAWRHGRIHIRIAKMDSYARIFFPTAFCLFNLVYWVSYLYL
Procedure: Food and water were available ad libitum.
The (100 μl) supernatant solution was diluted by […] of sterile water (pH 6.5).

aged-impaired (AI) rats [2] = assay: Morris water maze behavioral task, ICV infusion; type: in vivo, rat; details: 100 μg ICV
Source text: Cognitively impaired aged rats were implanted unilaterally with a cannula into the lateral ventricle. Stereotaxic coordinates were 1.0 mm posterior to bregma, 1.5 mm lateral to midline, and 3.5 mm ventral to the skull surface. After about a week of recovery, the rats were pre-trained in a water maze for 2 days (6 trials per day) to locate a submerged escape platform hidden underneath the surface of the pool, in which the escape platform location varied from day to day. No intracerebroventricular (ICY) infusion was given during pre-training.
After pre-training, rats received ICV infusion of either 100 μg 6,6 dimethyl-3-(3-hydroxypropypthio-1-(thiazol-2-yl)-6,7-dihydro-2-benzothiophen-4(5H)-one (n=6) in 5 μl DMSO or vehicle DMSO (n=5) 40 min prior to water maze training and testing. Training consisted of 8 trials per day for 2 days where the hidden escape platform remained in the same location. Rats were given 60 seconds to locate the platform with a 60 seconds inter-trial interval. The rats were given a probe test (120 seconds) 24 hr. after the end of training where the escape platform was removed. During the training, there were 4 blocks, where each block had 4 training trials.
During a test trial 24 hr. after training, the escape platform was removed. The search/swim pattern of the rats was used to measure whether the rats remember where the escape platform was located during pre-trial training in order to test for the long-term memory of the rats. In this trial, “target annulus” is a designated area 1.5 times the size of the escape platform around the area where the platform was located during pre-trial training. “Opposite annulus” is a control area of the same size as the size of the target annulus, which is located opposite to the target annulus in the pool. If the rats had good long term memory, they would tend to search in the area surrounding the location where the platform was during the pre-trial training (i.e., the “target” annulus; and not the “opposite” annulus). “Time in annulus” is the amount of time in seconds that the rat spent in the target or opposite annulus area. “Number (#) of crossings” in annulus is the number of times the rat swam across the target or opposite annulus area.

[3] = i.v., listed as Methyl 3,5-diphenylpyridazine-4-carboxylate

## C#Cc1ccc2c(c1)C(c1ccccc1F)=N[C@H](C)c1c(C(=O)OCC)ncn1-2 [SH-053-2′F-R—CH3]
MAM-treated rats; rat, in vivo
  increased locomotor response to amphetamine in MAM-treated rats: reduced
MAM-treated rats; systemic or infused into the ventral HPC
  number of spontaneously active DA neurons in the ventral tegmental area (VTA) of MAM rats: to levels observed in saline-treated rats

## CCOC(=O)c1ncn2c1Cn1c(C)nnc1-c1cc(OC)ccc1-2 [ethyl 3-methoxy-7-methyl-9H-benzo[f]imidazo[1,5-a][1,2,4]tri]
aged-impaired (AI) rats [1]; 3 mg/kg, four-hour delay, p=0.004 or p=0.018
  memory performance relative to vehicle control: significantly improved memory performance
GABAA α5 receptor; i.v.
  Ro 15-4513 binding in hippocampus: reduced
  cerebellum levels (binding) of Ro 15-4513: without affecting

## COC(=O)c1c(-c2ccccc2)cnnc1-c1ccccc1 [methyl 3,5-diphenylpyridazine-4-carboxylate]
aged-impaired (AI) rats [1]; 3 mg/kg ip, two-hour delay, t(7)=4.233, p=0.004
  memory performance relative to vehicle control: significantly improved memory performance
GABAA α5 receptor; i.v.
  Ro 15-4513 binding in hippocampus: blocked
  cerebellum levels (binding) of Ro 15-4513: did not affect
  ED50 of receptor occupancy, ratio method: 1.8 mg/kg
GABAA α5 receptor; [3]
  Ro 15-4513 binding in hippocampus: dose-dependently reduced
  cerebellum levels (binding) of Ro 15-4513: without affecting
GABAA α5 receptor; from exposure in aged rats at 3 mg/kg, i.p.
  RO required for cognitive efficacy in this model: 30-40%
GABAA α5 receptor; hippocampus exposure-occupancy relationship (FIG. 4)
  GABAA α5 receptors occupied at exposures behaviorally active in aged-impaired rats: about 32%

## CC1(C)CC(=O)c2c(SCCCO)sc(-c3nccs3)c2C1 [6,6 dimethyl-3-(3-hydroxypropyl)thio-1-(thiazol-2-yl)-6,7-dihydro-2-benzothiophen-4(5H)-one]
aged-impaired (AI) rats [2]
  time to find the escape platform, block 1 (beginning of training): about 24 seconds
  time to find the escape platform, block 4 (end of training): about 9.6 seconds
aged-impaired (AI) rats [2]; 24 hr. after training
  number of crossings of target annulus compared with opposite annulus, probe test: more often
  time in target annulus compared with opposite annulus, probe test: significantly more time
